Test results published in publication PMC2988090 (Nature, 2010).
“Also recorded” adds a separate entry of the source.

These compounds were tested against T1, dialyzed COI1-ASK1 in the presence of JAZ1 (Arabidopsis thaliana, UniProt O04197+Q9LMA8) (assay: inositol phosphate reconstitution assay). Conditions: dialyzed COI1, 100 nM ^3H-coronatine, 1 µM inositol phosphate.
T1 sequence (O04197 1-592): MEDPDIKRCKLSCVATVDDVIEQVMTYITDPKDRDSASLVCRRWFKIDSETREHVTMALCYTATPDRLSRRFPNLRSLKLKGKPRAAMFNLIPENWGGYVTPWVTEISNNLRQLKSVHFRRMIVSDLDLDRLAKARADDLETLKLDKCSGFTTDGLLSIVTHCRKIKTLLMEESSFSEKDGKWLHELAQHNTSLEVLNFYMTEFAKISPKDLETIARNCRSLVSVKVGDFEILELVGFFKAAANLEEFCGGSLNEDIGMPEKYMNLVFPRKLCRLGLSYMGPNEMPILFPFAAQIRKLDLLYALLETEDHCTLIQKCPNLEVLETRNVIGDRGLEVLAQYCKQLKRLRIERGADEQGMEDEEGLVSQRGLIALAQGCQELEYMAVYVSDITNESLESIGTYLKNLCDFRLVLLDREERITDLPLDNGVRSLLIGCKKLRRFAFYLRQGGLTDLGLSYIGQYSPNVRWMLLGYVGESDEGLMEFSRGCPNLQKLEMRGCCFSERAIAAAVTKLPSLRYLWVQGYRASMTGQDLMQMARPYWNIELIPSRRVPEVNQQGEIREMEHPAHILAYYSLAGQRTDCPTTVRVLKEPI
T1 sequence (Q39255 1-160 partner): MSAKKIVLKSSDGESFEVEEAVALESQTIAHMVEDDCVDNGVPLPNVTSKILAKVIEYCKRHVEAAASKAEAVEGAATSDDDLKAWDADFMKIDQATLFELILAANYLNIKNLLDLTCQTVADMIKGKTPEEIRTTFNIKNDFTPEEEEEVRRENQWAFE
T1 sequence (Q9LMA8 1-253): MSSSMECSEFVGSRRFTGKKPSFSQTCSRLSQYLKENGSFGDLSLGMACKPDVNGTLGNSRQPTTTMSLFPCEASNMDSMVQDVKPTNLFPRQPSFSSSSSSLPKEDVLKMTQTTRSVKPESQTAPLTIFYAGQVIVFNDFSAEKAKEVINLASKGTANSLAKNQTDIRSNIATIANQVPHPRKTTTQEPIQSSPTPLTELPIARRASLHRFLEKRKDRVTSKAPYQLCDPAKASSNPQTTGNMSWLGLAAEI
Type: binding

| support of COI1-JAZ1 co-receptor ligand binding activity | Structure (SMILES) |
| --- | --- |
| not favorable for activity | O=P(O)(O)OC1C(OP(=O)(O)O)C(OP(=O)(O)O)C(OP(=O)(O)O)C(OP(=O)(O)O)C1OP(=O)(O)O (stereo not drawn) [InsP6, inositol hexakisphosphate] |
| does not | O=P(O)(O)O[C@@H]1[C@H](O)[C@H](O)[C@@H](OP(=O)(O)O)[C@H](OP(=O)(O)O)[C@H]1O [inositol (1,4,5) triphosphate] |

| Structure (SMILES) | support of COI1-JAZ1 co-receptor ligand binding activity |
| --- | --- |
| O=P(O)(O)O[C@H]1[C@H](OP(=O)(O)O)[C@@H](OP(=O)(O)O)[C@@H](O)[C@@H](O)[C@@H]1OP(=O)(O)O [inositol (1,4,5,6) tetrakisphosphate] | supports the activity; also recorded: support high affinity hormone binding |
